Assay results taken from article PMC9297976 (Journal of Applied Toxicology, 2021).

Columns and labels:
[1] = biological target: T1, medaka Esr1 (mEsr1) (Oryzias latipes, UniProt P50241); assay: cell-based; parameters: species or system Japanese medaka (Oryzias latipes)
T1 sequence (P50241 1-620): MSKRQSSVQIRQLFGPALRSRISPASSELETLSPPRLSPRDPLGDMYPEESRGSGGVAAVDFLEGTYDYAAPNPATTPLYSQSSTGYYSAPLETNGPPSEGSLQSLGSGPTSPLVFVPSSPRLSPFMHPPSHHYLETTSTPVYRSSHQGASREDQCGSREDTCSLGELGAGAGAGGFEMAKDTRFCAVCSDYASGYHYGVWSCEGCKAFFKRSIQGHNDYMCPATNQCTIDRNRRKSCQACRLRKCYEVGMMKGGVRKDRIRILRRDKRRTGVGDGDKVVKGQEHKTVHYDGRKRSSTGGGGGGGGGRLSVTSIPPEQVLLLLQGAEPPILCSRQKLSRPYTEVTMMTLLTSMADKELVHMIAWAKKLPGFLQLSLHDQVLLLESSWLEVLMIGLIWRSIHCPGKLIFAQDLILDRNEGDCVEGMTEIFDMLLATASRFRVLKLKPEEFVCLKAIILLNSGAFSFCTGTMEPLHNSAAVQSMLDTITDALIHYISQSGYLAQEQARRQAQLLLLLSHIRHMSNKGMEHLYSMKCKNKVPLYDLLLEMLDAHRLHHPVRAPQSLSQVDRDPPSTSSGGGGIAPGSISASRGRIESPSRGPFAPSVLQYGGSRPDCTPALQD

[2] = biological target: T1, medaka Esr1 (mEsr1); assay: Medaka Esr1 reporter gene assay, antagonist assay; assay type: cell-based, Japanese medaka (Oryzias latipes); conditions: E2 spiked at 1.0 nM (B); MAC = 1.0 × 10^−5 M
[3] = biological target: T2, medaka ARβ (mArβ) (Oryzias latipes, UniProt D1MV73); assay: Medaka ARβ reporter gene assay, agonist assay; assay type: cell-based, Japanese medaka (Oryzias latipes); conditions: MAC = 1.0 × 10^−5 M
T2 sequence (D1MV73 1-744): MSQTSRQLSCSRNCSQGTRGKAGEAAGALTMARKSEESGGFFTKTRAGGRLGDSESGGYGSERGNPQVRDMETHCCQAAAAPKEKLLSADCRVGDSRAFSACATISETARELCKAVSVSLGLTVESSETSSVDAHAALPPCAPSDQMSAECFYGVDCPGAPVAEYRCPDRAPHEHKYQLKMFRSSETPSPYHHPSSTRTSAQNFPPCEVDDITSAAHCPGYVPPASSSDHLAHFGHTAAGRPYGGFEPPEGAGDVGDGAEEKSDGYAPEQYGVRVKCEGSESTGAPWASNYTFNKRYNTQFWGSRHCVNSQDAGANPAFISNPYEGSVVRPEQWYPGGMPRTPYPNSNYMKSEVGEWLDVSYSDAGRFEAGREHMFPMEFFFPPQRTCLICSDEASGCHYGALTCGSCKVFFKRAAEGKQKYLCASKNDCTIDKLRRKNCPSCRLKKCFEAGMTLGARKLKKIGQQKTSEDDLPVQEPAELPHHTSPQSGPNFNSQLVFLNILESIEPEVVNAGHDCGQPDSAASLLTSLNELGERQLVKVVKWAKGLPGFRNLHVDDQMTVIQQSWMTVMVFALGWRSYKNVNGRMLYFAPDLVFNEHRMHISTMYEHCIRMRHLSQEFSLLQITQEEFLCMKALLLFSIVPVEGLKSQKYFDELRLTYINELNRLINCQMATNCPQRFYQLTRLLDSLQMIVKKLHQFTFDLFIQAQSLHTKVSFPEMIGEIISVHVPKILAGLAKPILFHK

[4] = biological target: T2, medaka ARβ (mArβ); assay: Medaka ARβ reporter gene assay, antagonist assay; assay type: cell-based, Japanese medaka (Oryzias latipes); conditions: 11‐KT spiked at 50 nM (D); MAC = 1.0 × 10^−5 M
[5] = system: Japanese medaka (Oryzias latipes); assay: Fish Short‐Term Reproduction Assay; assay type: in vivo; conditions: for GSI Female / GSI Male / HSI Female / HSI Male / Length Female / Length Male / Weight Female / Weight Male: completion of exposure
[6] = ref Brooke et al., 2009; Saeger et al., 1979; cited from earlier work
[7] = 44.9 μg/L measured, 21 d, sig. ↓ vs control
[8] = measured concentration 2.13 μg/L
[9] = measured concentration 7.19 μg/L
[10] = measured concentration 17.1 μg/L
[11] = measured concentration 44.9 μg/L

With O=P(Oc1ccccc1)(Oc1ccccc1)Oc1ccccc1 [TPP, Triphenyl phosphate] the EC50 [1] was 9.7 µM, the “In vitro positive: Esr” value ([1]; mode of action in which EC50 or PC10 was obtained in RGA) was “Esr” and the Antagonistic activity [2] was “NE (MAC = 1.0 × 10^−5 M)^(B)”. The Agonistic activity [3] was “NE (MAC = 1.0 × 10^−5 M)”, the Antagonistic activity [4] was “NE (MAC = 1.0 × 10^−5 M)^(D)” and the Fertility rate ([5]; 2.13 μg/L measured, 21 d) was 89 ± 4.9%. For the same compound, the “Hepatic VTG, female” value ([5]; 2.13 μg/L measured, 21 d) was 542 ± 115 ng/mg‐liver, the “Hepatic VTG, male” value ([5]; 2.13 μg/L measured, 21 d) was 6.9 ± 4.0 ng/mg‐liver and the Mortality ([5]; 2.13 μg/L measured, 21 d) was 0.0%. For the same compound, the “Mortality, number of dead fish” value ([5]; 2.13 μg/L measured, 21 d) was 0, the “Number of fertilized eggs (per female per day)” value ([5]; 2.13 μg/L measured, 21 d) was 18 ± 3.1 and the “Number of total eggs (per female per day)” value ([5]; 2.13 μg/L measured, 21 d) was 20 ± 2.7. The “SSC female (joint plates with papillary processes)” value (from here on “SSC female”) ([5]; 2.13 μg/L measured, 21 d) was 0 ± 0, the “SSC male (joint plates with papillary processes)” value (from here on “SSC male”) ([5]; 2.13 μg/L measured, 21 d) was 83 ± 7.4 and the Fertility rate ([5]; 7.19 μg/L measured, 21 d) was 91 ± 3.8%. For the same compound, the “Hepatic VTG, male” value ([5]; 7.19 μg/L measured, 21 d) was 8.4 ± 9.0 ng/mg‐liver, the Mortality ([5]; 7.19 μg/L measured, 21 d) was 0.0% and the “Mortality, number of dead fish” value ([5]; 7.19 μg/L measured, 21 d) was 0. The “Number of fertilized eggs (per female per day)” value ([5]; 7.19 μg/L measured, 21 d) was 17 ± 3.4, the “Number of total eggs (per female per day)” value ([5]; 7.19 μg/L measured, 21 d) was 19 ± 3.1 and the “SSC female” value ([5]; 7.19 μg/L measured, 21 d) was 0 ± 0. For the same compound, the “SSC male” value ([5]; 7.19 μg/L measured, 21 d) was 84 ± 6.9, the “Hepatic VTG, female” value ([5]; 7.19 μg/L measured, 21 d, sig. ↓ vs control) was 360 ± 60 ng/mg‐liver and the Fertility rate ([5]; 17.1 μg/L measured, 21 d) was 93 ± 2.2%. For the same compound, the “Hepatic VTG, male” value ([5]; 17.1 μg/L measured, 21 d) was 11 ± 9.4 ng/mg‐liver, the Mortality ([5]; 17.1 μg/L measured, 21 d) was 0.0% and the “Mortality, number of dead fish” value ([5]; 17.1 μg/L measured, 21 d) was 0. For the same compound, the “Number of fertilized eggs (per female per day)” value ([5]; 17.1 μg/L measured, 21 d) was 19 ± 1.8, the “Number of total eggs (per female per day)” value ([5]; 17.1 μg/L measured, 21 d) was 20 ± 2.0 and the “SSC female” value ([5]; 17.1 μg/L measured, 21 d) was 0 ± 0. For the same compound, the “SSC male” value ([5]; 17.1 μg/L measured, 21 d) was 83 ± 7.2, the “Hepatic VTG, female” value ([5]; 17.1 μg/L measured, 21 d, sig. ↓ vs control) was 420 ± 77 ng/mg‐liver and the Fertility rate ([5]; 44.9 μg/L measured, 21 d) was 91 ± 3.9%. For the same compound, the “Hepatic VTG, male” value ([5]; 44.9 μg/L measured, 21 d) was 8.8 ± 8.1 ng/mg‐liver, the Mortality ([5]; 44.9 μg/L measured, 21 d) was 4.2% and the “Mortality, number of dead fish” value ([5]; 44.9 μg/L measured, 21 d) was 1. For the same compound, the “SSC female” value ([5]; 44.9 μg/L measured, 21 d) was 0 ± 0, the “SSC male” value ([5]; 44.9 μg/L measured, 21 d) was 90 ± 8.0 and the “Hepatic VTG, female” value [5, 7] was 417 ± 70 ng/mg‐liver. For the same compound, the “Number of fertilized eggs (per female per day)” value [5, 7] was 15 ± 3.5, the “Number of total eggs (per female per day)” value [5, 7] was 16 ± 3.2 and the “Fecundity, number of total eggs (in words)” value ([5]; 21 d) was “statistically significant decrease”. For the same compound, the LOECmVTG ([5]; LOEC on VTG induction in males) was “ND (>44.9) μg/L”, the LOECREPRO ([5]; LOEC on reproduction (fecundity and/or fertility)) was 44.9 µg/L and the “Fertility rate (in words)” value ([5]; chemicals with significant decrease of number of total eggs) was “no significant effect”. For the same compound, the “LOECREPRO (reduction in fecundity or fertility)” value ([5]; concentrations without overt toxicity) was 44.9 µg/L, the LOECTOX ([5]; lowest observed effect concentration on mortality) was “ND (>44.9) μg/L” and the “GSI Female” value [5, 8] was 7.9 ± 0.5%. The “GSI Male” value [5, 8] was 0.87 ± 0.17%, the “HSI Female” value [5, 8] was 3.5 ± 0.39% and the “HSI Male” value [5, 8] was 1.4 ± 0.12%. For the same compound, the “Length Female” value [5, 8] was 35.3 ± 0.7 mm, the “Length Male” value [5, 8] was 37.9 ± 1.1 mm and the “Weight Female” value [5, 8] was 449 ± 19 mg. For the same compound, the “Weight Male” value [5, 8] was 532 ± 44 mg, the “GSI Female” value [5, 9] was 8.1 ± 0.6% and the “GSI Male” value [5, 9] was 0.95 ± 0.09%. For the same compound, the “HSI Female” value [5, 9] was 3.1 ± 0.21%, the “HSI Male” value [5, 9] was 1.7 ± 0.29% and the “Length Female” value [5, 9] was 35.5 ± 0.3 mm. For the same compound, the “Length Male” value [5, 9] was 38.0 ± 1.1 mm, the “Weight Female” value [5, 9] was 464 ± 27 mg and the “Weight Male” value [5, 9] was 544 ± 49 mg. For the same compound, the “GSI Female” value [5, 10] was 7.7 ± 0.7%, the “GSI Male” value [5, 10] was 0.94 ± 0.10% and the “HSI Female” value [5, 10] was 3.6 ± 0.46%. The “HSI Male” value [5, 10] was 1.7 ± 0.24%, the “Length Female” value [5, 10] was 35.2 ± 1.0 mm and the “Length Male” value [5, 10] was 37.7 ± 1.0 mm. The “Weight Female” value [5, 10] was 468 ± 34 mg, the “Weight Male” value [5, 10] was 539 ± 31 mg and the “GSI Female” value [5, 11] was 9.4 ± 1.3%. The “GSI Male” value [5, 11] was 0.80 ± 0.07%, the “HSI Female” value [5, 11] was 3.6 ± 0.60% and the “HSI Male” value [5, 11] was 1.7 ± 0.13%. The “Length Female” value [5, 11] was 34.4 ± 0.4 mm, the “Length Male” value [5, 11] was 38.3 ± 1.1 mm and the “Weight Female” value [5, 11] was 432 ± 32 mg. For the same compound, the “Weight Male” value [5, 11] was 583 ± 68 mg and the Water solubility [6] was 1 to 1.9 µg/mL.
